Assays:
Type in all cases: cell-based
[1] = tested on: human iPS cells (201B7 strain); assay: Bright field observation of cell aggregates in suspension culture (neuroepithelium formation); conditions: day 18
Protocol: The thus-prepared subconfluent human iPS cells were treated with the cell dispersion solution by using TrypLE Select (manufactured by Life Technologies), further dispersed into single cells by pipetting operation, and the above human iPS cells dispersed into single cells were suspended in 100 μl of a serum-free medium at 1.2×10^4 cells per well of a non-cell-adhesive 96-well culture plate (PrimeSurface 96V-bottom plate, SUMITOMO BAKELITE). Thereafter, the cells were subjected to suspension culturing at 37° C., 5% CO2. As the serum-free medium (gfCDM+KSR) therefor, a serum-free medium which is a 1:1 mixture of F-12 medium and IMDM medium supplemented with 10% KSR, 450 μM 1-monothioglycerol, 1× Chemically defined lipid concentrate was used. At the time of the start of suspension culturing (day 0 after the start of suspension culturing, start of step 2), a serum-free medium supplemented with SAG (final concentration […]) as a Shh signal transduction pathway activating substance and Y27632 (20 μM) was used (FIG. 5A-D). By day 2 after the start of suspension culturing, cell aggregates were formed. On day 3 after the start of suspension culturing, a serum-free medium (50 μl) free of Y27632 and SAG was added. […] The thus-prepared cell aggregates were subjected to bright field observation under an inverted microscope (BIOREVO manufactured by KEYENCE) on day 18 after the start of suspension culturing.
(§1) The thus-prepared subconfluent human iPS cells were treated with the cell dispersion solution by using TrypLE Select (manufactured by Life Technologies), further dispersed into single cells by pipetting operation, and the above human iPS cells dispersed into single cells were suspended in 100 μl of a serum-free medium at 1.0×10^4 cells per well of a non-cell-adhesive 96-well culture plate (SUMILON SPHEROID V-bottom plate PrimeSurface 96V-bottom plate, SUMITOMO BAKELITE). Thereafter, the cells were subjected to suspension culturing at 37° C., 5% CO2. As the serum-free medium (gfCDM+KSR) therefor, a serum-free medium which is a 1:1 mixture of F-12 medium and IMDM medium supplemented with 10% KSR, 450 μM 1-monothioglycerol, 1× Chemically defined lipid concentrate was used. At the time of the start of suspension culturing (day 0 after the start of suspension culturing, start of step 2), the above serum-free medium supplemented with Y27632 (final concentration 20 μM) and further supplemented with SAG (final concentration 30 nM), Purmorphamine (manufactured by Wako, final concentration 0.2 μM), or human recombinant Shh (manufactured by R&D, Recombinant N-Terminus, final concentration 50 ng/ml) as a Shh signal transduction pathway activating substance was used (FIG. 8). On day 2 after the start of suspension culturing, a cell aggregates were formed. […]

[2] = tested on: human iPS cells (DSPC-3 strain); assay: as above; conditions: Example 8; StemFit; SAG 300 nM day 0; day 22
Protocol: as §1, with “at 1.2×10^4” for “at 1.0×10^4”, “SAG” for “SAG (final concentration 30 nM), Purmorphamine (manufactured by Wako, final concentration 0.2 μM), or human recombinant Shh (manufactured by R&D, Recombinant N-Terminus, final concentration 50 ng/ml)”, “as an exogenous” for “as a”, “substance (final concentration 300 nM), or not supplemented with SAG (final concentration 0 nM)” for “substance”, “(FIG. 10).” for “(FIG. 8).”, “culturing,” for “culturing, a”

[3] = tested on: human iPS cells (201B7 strain); assay: Immunostaining of aggregate frozen sections for retinal tissue markers Chx10 and Rx; parameters: proportion of Chx10-positive cells: dose or concentration left out as unconfirmed; conditions: Example 3, Essential 8, SAG day 0, day 18
Text: (§2) Cell aggregates on day 18 after the start of suspension culturing were fixed with 4% para-formaldehyde to produce frozen sections. These frozen sections were immunostained for Chx10 (anti-Chx10 antibody, Exalpha, sheep), which is one of the retinal tissue markers, or Rx (anti-Rx antibody, manufactured by TAKARA, guinea pig), which is one of the retinal tissue markers.
Cell aggregates on day 18 after the start of suspension culturing were fixed with 4% para-formaldehyde to produce frozen sections. These frozen sections were immunostained for Chx10 (anti-Chx10 antibody, Exalpha, sheep), which is one of the retinal tissue markers.

[4] = tested on: human iPS cells (DSPC-3 strain); assay: as above; conditions: Example 8; SAG 300 nM day 0; BMP4 1.5 nM day 3; day 22
Text: as §2, with “22” for “18”, “Takara,” for “TAKARA,”

**Q.** With `CNC1CCC(N(Cc2cccc(-c3ccncc3)c2)C(=O)c2sc3ccccc3c2Cl)CC1` (centres unmarked) [SAG] as the molecule, how does the “neuroepithelium formation (bright field)” value ([1]; Example 3, Essential 8, SAG 300 μM day 0, with or without BMP4 1.5 nM day 6) read?
**A.** neuroepithelium was formed

**Q.** And the “neuroepithelium formation (bright field)” value ([1]; Example 6, StemFit, SAG 30 nM, Purmorphamine 0.2 μM or human recombinant Shh 50 ng/ml day 0, BMP4 1.5 nM day 3)?
**A.** neuroepithelium was formed

**Q.** What about the “aggregate shape and neuroepithelium formation (bright field)” value [2] of the same molecule?
**A.** cell aggregates were maintained, and neuroepithelium was formed

**Q.** And the “proportion of Rx-positive cells in the total cells” value (“proportion of Rx-positive cells” for short) ([3]; BMP4 1.5 nM day 6)?
**A.** not less than 40%

**Q.** What about the “proportion of Chx10-positive cells” value ([3]; no BMP4) of the same molecule?
**A.** not more than 3%

**Q.** And the “proportion of Rx-positive cells” value ([3]; no BMP4)?
**A.** not more than 3%

**Q.** And the “proportion of Chx10-positive cells in the total cells” value [4]?
**A.** about 10%

**Q.** And the “proportion of Rx-positive cells” value [4]?
**A.** about 10%
